Measured values from article PMC6385087, “New Multitarget Hybrids Bearing Tacrine and Phenylbenzothiazole Motifs as Potential Drug Candidates for Alzheimer’s Disease” (Molecules, 2019).

Columns and labels:
[1] = tested on: SH-SY5Y cells; assay: Neuroprotection against ferrous sulfate/L-ascorbic acid toxicity, MTT reduction; assay type: cell-based, human; conditions: Fe/Asc 500 μM/5 mM, 24 h after 1 h pre-treatment, compounds: 16 2.5 µM, 17 0.5 µM, 14 and 15 0.2 µM, 19 and 18 1 µM
Protocol: The neuroprotective effect of TAC-PhBTA conjugates was evaluated using SH-SY5Y cells treated with Aβ1–42 peptides or ascorbate/iron. For each compound, a dose-response curve was performed to select a non-toxic concentration in order to analyze its neuroprotective effect (Figure 3).
SH-SY5Y human neuroblastoma cell line (ATCC-CRL-2266) grown in Dulbecco’s modified Eagle’s medium (DMEM) obtained from Gibco-Invitrogen (Life Technologies Ltd., Liverpool, UK) with 10% heat inactivated fetal calf serum, containing 50 U/mL penicillin, and 50 μg/mL streptomycin, under a humidified atmosphere of 95% air-5% CO2 at 37 °C. Cells were plated at 0.12 × 10^6 cells/mL for cell viability assay. The tested compounds (16, 17, 14, 15, 19 and 18) were dissolved in DMSO at a concentration of 25 mM and aliquots were stored at −20 °C. We performed a dose-response screening (from 0.2 μM to 5 μM) in order to choose the highest non-toxic concentration. […]
Cell viability was determined by a MTT (3-(4,5-dimethylthiazol-2-yl)-2,5-diphenyltetrazolium bromide) reduction test. […] The absorbance was measured at 570 nm. Cell reduction ability was expressed as a percentage of untreated control cells.
All data were expressed as mean ± S.E.M. of at least three independent experiments performed in duplicates. […]

[2] = Solubility in methanol; assay type: physicochemical

COc1cc(-c2nc3ccccc3s2)ccc1OCC(=O)NCCCNc1c2c(nc3ccccc13)CCCC2 [compound 16, 2-(4-(Benzo[d]thiazol-2-yl)-2-methoxyphenoxy)-N-(3-((1,2,3,4-tetrahydroacridin-9-yl)amino)propyl)acetamide]
Neuroprotective effect against Asc/Fe toxicity (cell viability, MTT) [1]: statistical significant neuroprotective effect | Solubility in methanol [2]: soluble in methanol
